Assay results reported in ChEMBL document CHEMBL2417394, “Exquisite selectivity for human toll-like receptor 8 in substituted furo[2,3-c]quinolines” (J Med Chem, 2013).
The source made the active and inactive calls. The rule behind the calls is not given here.

Assays:
[1] = target: Toll-like receptor 5 (Homo sapiens) (UniProt O60602); test: Modulation of human TLR5 expressed in HEK293 cells co-transfected with MD2 and sAP assessed as induction of NF-kappaB activity by reporter gene assay; assay type: cell-based
Sequence of Toll-like receptor 5 (Homo sapiens) (O60602 whole entry): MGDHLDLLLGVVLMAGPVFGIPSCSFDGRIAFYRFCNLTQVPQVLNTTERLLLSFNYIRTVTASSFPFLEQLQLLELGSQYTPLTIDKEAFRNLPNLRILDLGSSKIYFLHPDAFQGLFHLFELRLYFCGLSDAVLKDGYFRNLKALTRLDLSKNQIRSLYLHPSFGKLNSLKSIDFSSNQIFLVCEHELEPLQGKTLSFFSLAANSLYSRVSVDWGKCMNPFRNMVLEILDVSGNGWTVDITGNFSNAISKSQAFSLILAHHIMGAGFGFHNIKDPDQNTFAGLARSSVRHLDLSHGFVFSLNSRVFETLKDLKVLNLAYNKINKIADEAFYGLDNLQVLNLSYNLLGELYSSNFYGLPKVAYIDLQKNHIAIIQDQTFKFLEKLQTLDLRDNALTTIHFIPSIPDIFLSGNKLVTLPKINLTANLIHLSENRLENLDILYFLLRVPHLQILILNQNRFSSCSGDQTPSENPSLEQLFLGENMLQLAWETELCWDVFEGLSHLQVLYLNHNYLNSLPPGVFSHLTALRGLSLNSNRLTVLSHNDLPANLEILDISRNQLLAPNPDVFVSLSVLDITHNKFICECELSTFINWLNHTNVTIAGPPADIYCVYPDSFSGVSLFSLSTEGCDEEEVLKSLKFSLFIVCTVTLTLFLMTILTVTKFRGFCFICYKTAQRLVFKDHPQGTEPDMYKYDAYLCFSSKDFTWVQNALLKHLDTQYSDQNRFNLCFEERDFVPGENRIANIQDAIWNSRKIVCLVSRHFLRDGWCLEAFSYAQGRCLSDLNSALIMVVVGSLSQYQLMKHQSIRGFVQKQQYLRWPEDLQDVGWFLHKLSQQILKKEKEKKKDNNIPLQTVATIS

[2] = target: T1, Toll-like receptor 9 (Homo sapiens) (UniProt Q9NR96); test: Modulation of human TLR9 expressed in HEK293 cells co-transfected with MD2 and sAP assessed as induction of NF-kappaB activity by reporter gene assay; assay type: cell-based
T1 sequence (whole entry): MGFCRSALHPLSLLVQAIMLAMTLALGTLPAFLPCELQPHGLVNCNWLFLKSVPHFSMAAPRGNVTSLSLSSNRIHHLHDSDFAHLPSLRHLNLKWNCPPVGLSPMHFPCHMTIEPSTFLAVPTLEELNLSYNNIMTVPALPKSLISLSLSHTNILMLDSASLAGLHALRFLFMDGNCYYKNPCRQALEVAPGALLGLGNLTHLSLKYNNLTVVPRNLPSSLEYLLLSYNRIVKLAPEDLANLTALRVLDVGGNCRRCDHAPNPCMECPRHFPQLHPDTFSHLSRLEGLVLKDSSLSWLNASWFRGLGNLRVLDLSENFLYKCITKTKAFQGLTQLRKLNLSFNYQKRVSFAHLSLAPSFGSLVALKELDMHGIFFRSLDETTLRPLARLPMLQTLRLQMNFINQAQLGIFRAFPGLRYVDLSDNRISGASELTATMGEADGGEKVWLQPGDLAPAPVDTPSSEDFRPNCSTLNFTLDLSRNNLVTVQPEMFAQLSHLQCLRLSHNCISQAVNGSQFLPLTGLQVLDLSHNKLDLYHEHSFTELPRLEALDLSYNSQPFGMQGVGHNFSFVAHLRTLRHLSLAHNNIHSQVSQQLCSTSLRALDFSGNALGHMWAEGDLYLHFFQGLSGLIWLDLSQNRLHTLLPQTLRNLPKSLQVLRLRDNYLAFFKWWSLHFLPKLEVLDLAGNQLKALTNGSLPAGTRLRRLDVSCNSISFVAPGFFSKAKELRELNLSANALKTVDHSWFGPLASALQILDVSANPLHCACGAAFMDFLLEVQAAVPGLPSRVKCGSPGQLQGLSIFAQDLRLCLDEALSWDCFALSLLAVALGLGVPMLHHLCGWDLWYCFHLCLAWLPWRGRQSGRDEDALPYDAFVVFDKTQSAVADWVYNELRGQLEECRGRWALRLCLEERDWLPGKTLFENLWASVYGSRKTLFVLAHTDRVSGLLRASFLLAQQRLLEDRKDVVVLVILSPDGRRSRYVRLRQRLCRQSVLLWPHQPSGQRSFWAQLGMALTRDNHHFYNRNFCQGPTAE

[3] = target: Nucleotide-binding oligomerization domain-containing protein 2 (Homo sapiens) (UniProt Q9HC29); test: Modulation of NOD2 (unknown origin)
Sequence of Nucleotide-binding oligomerization domain-containing protein 2 (Homo sapiens) (Q9HC29 whole entry, the tested form may be a part): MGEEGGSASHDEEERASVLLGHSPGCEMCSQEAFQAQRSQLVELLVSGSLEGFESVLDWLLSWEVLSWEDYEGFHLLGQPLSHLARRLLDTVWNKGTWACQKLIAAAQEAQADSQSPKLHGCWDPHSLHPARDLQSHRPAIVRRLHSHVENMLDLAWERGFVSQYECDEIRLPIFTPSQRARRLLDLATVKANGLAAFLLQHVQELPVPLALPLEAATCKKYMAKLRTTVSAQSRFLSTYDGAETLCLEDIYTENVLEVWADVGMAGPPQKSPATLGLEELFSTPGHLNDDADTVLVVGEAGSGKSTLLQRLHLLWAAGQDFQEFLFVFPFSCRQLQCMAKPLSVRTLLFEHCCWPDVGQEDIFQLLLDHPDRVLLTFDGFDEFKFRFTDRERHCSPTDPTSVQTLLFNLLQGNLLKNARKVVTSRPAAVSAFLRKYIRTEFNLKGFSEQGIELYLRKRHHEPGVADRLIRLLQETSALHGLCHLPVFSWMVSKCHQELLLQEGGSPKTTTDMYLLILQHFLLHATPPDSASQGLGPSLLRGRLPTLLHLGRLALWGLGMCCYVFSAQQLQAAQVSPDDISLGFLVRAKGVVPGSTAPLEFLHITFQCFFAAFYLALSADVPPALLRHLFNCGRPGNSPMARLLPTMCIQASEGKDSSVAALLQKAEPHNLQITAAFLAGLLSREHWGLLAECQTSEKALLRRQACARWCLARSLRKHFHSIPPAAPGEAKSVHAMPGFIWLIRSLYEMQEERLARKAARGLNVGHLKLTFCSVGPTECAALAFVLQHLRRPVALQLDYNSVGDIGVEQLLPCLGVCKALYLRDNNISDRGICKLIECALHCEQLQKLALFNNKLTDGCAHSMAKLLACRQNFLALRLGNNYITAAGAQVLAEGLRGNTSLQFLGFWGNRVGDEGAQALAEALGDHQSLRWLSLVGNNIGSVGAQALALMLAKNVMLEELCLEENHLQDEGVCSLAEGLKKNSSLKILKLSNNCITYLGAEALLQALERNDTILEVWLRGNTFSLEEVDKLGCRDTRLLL

[4] = target: T2, Nucleotide-binding oligomerization domain-containing protein 1 (Homo sapiens) (UniProt Q9Y239); test: Modulation of NOD1 (unknown origin)
T2 sequence (whole entry): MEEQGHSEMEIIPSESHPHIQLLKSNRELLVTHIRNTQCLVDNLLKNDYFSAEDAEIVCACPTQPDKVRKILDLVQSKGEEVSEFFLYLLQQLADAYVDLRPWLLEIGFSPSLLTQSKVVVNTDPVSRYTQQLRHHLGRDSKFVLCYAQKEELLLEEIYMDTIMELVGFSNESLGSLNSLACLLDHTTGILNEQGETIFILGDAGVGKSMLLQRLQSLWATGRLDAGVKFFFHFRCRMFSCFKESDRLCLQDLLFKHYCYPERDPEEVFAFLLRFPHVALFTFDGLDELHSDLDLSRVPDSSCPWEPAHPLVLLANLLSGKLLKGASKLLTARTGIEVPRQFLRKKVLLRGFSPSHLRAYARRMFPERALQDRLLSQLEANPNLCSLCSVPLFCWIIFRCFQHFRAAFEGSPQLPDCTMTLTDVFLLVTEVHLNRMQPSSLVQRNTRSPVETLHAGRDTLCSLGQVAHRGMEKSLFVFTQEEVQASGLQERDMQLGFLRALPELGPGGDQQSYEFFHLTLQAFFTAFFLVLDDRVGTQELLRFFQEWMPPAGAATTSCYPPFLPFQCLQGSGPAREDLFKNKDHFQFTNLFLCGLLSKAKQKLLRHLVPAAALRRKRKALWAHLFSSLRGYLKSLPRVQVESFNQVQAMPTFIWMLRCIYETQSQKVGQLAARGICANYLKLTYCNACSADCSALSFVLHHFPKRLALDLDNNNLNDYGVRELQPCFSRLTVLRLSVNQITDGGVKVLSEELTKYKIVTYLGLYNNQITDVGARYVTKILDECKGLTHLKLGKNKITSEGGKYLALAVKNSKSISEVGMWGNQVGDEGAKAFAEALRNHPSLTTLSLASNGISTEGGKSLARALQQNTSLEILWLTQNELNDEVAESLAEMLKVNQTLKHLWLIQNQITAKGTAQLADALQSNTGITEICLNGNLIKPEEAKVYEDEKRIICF

Compound	Activity [1]	Activity [2]	Activity [3]	Activity [4]
CCCCc1cc2c(nc(N)c3ccccc32)o1	inactive	inactive		
NCCc1cc2c(o1)c(N)nc1ccccc12	Active	Active	Active	Active
